According to PubChem BioAssay AID1159605 (The Scripps Research Institute Molecular Screening Center, 2016):
Calls of active or inactive are those of the source.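 Rule for the calls: active = IC50 of 10 µM or lower; inactive = IC50 above 10 µM.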

Target: Mitogen-activated protein kinase kinase kinase 5 (Homo sapiens) (UniProt Q99683)
Assay: MAP3K5 inhibition concentration-response curves – biochemical, AlphaScreen, MKK6 phosphorylation, dose response (AID 1159605);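 note: ASK1 phosphorylation of MKK6 substrate detected with anti-phospho-MKK6 antibody beads; inhibitors lower the luminescent signal by blocking MKK6 phosphorylation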
Settings: ASK1 MKK6 phosphorylation, AlphaScreen luminescence

Sequence of Mitogen-activated protein kinase kinase kinase 5 (Homo sapiens) (Q99683 whole entry, looked up): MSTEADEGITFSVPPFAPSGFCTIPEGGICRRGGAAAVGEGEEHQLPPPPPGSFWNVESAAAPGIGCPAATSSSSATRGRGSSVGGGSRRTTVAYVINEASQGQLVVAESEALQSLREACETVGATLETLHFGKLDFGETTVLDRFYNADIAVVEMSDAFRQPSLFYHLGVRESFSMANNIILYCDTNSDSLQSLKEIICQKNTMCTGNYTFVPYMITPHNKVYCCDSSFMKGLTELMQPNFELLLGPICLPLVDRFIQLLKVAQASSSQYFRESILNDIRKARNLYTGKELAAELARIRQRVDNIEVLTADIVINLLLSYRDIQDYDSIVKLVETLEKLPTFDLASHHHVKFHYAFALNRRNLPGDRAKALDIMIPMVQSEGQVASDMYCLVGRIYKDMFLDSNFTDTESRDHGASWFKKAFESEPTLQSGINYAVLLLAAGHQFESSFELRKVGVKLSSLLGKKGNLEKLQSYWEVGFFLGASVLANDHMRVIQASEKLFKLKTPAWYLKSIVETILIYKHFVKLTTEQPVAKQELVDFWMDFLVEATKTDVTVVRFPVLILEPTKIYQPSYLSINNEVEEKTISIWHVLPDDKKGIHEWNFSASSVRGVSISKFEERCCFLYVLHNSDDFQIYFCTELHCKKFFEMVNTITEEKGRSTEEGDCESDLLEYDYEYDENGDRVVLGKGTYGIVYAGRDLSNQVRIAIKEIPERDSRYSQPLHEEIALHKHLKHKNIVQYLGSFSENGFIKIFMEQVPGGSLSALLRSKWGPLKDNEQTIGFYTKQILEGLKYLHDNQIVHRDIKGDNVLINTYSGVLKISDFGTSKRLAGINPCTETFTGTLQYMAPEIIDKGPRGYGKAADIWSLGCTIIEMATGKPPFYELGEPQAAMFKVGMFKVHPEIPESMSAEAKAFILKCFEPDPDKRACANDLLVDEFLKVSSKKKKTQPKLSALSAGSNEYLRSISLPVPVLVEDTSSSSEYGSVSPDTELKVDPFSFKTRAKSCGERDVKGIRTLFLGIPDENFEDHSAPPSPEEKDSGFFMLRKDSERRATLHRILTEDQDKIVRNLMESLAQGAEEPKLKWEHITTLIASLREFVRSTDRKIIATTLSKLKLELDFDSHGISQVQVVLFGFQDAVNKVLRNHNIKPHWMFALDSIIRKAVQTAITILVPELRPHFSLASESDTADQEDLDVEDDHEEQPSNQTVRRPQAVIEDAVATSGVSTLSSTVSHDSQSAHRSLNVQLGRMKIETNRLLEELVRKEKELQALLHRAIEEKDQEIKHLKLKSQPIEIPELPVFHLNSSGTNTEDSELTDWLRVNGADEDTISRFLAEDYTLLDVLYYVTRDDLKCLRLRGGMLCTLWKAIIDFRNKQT

IC50	SMILES
7.76 µM	COc1ccc(CCNc2ccnc(Nc3cccc(N(C)C)c3)n2)cc1
> 20 µM (inactive)	FC(F)(F)c1ccc(Cn2cnc3c(Nc4ccc5c(c4)OCO5)nc(N4CCN(c5ccccn5)CC4)nc32)cc1
6.21 µM	COc1cc2nc(Nc3cccc(N(C)C)c3)nc(Nc3ccc4c(c3)OCO4)c2cc1OC
inactive	COc1cc(Nc2nc(-c3ccc(C(N)=O)cc3)ncc2C)cc(OC)c1OC
> 20.1 µM (inactive)	c1cncc(CNc2nc(Nc3ccc(N4CCOCC4)cc3)nc3c2ncn3C2CCCCC2)c1
inactive	Oc1ccc(CCNc2nc(NC3CCN(Cc4ccccc4)CC3)nc3c2ncn3Cc2ccc(C(F)(F)F)cc2)cc1
inactive	CC(C)n1cnc2c(Nc3ccc(N4CCOCC4)cc3)nc(N3CCN(c4ccccn4)CC3)nc21
5.42 µM	CC(C)n1cnc2c(NCc3cccc(C(F)(F)F)c3)nc(Nc3ccc(N4CCOCC4)cc3)nc21
> 22 µM (inactive)	FC(F)(F)c1ccc(Cn2cnc3c(Nc4ccc5c(c4)OCO5)nc(Nc4ccccc4)nc32)cc1
inactive	c1ccc(N2CCN(c3nc(Nc4ccc(N5CCOCC5)cc4)c4ncn(-c5ccsc5)c4n3)CC2)nc1
> 21.5 µM (inactive)	CC(C)n1cnc2c(NC3CCN(Cc4ccccc4)CC3)nc(Nc3cccc(N(C)C)c3)nc21
> 19.2 µM (inactive)	Cc1nc(C)n(-c2ccc(Nc3nccc(-c4cc(F)cc(-c5cn[nH]c5C)c4)n3)cc2)n1
5.3 µM	COc1ccc(CCNc2nc(Nc3ccc(N4CCOCC4)cc3)nc3c2ncn3Cc2ccc(C(F)(F)F)cc2)cc1
inactive	c1ccc(OCCNc2nc(Nc3ccc(-n4ccnc4)cc3)nc3c2ncn3C2CCCCC2)cc1
> 19.8 µM (inactive)	FC(F)(F)c1ccc(Cn2cnc3c(NCc4cccc(C(F)(F)F)c4)nc(Nc4ccc5ncccc5c4)nc32)cc1
> 19.2 µM (inactive)	Fc1cc(-c2ccnc(Nc3ccc(N4CCOCC4)cc3)n2)cc(N2CCN(C3CC3)CC2)c1
inactive	COc1cc2nc(Nc3ccc(N4CCOCC4)cc3)nc(Nc3cc(OC)c(OC)c(OC)c3)c2cc1OC
> 18.1 µM (inactive)	Cc1cc(NCCc2ccc(O)cc2)nc(N2CCN(Cc3ccc4c(c3)OCO4)CC2)n1
> 20.3 µM (inactive)	COc1cc2nc(Nc3cc(OC)c(OC)c(OC)c3)nc(Nc3ccc(N4CCOCC4)cc3)c2cc1OC
inactive	COc1ccc(CCNc2nc(NC3CCN(Cc4ccccc4)CC3)nc3c2ncn3C2CCCCC2)cc1
> 19.2 µM (inactive)	COc1ccc(-c2ncn(-c3ccc(Nc4nccc(-c5cc(C#N)cc(N6CCNCC6)c5)n4)cc3)n2)cn1

IC50	SMILES
> 19.2 µM (inactive)	c1ccc(-c2ncn[nH]2)c(Nc2ccnc(Nc3ccc(N4CCOCC4)cc3)c2)c1
> 20.4 µM (inactive)	COc1cc2nc(Nc3cccc(N(C)C)c3)nc(NCCOc3ccccc3)c2cc1OC
inactive	Cc1cc(Nc2ccc(N3CCOCC3)cc2)nc(N2CCN(Cc3ccc4c(c3)OCO4)CC2)n1
> 19.2 µM (inactive)	CN1CCN(c2ncn(-c3ccc(Nc4nccc(-c5cc(C#N)cc(N6CCC(O)CC6)c5)n4)cc3)n2)CC1
> 19.1 µM (inactive)	CC(C)n1cnc2c(Nc3ccc(N4CCOCC4)cc3)nc(Nc3ccc(-n4ccnc4)cc3)nc21
> 21.8 µM (inactive)	c1ccc2c(-c3nccc(Nc4ccc(N5CCOCC5)cc4)n3)csc2c1
> 19.2 µM (inactive)	COc1ccc2c(c1)CC(C(=O)Nc1ccc(-c3cn[nH]c3)cc1OCCOCc1ccccc1)CO2 (centres undefined)
inactive	CCCNc1nc(Nc2ccc(N3CCOCC3)cc2)nc2c1ncn2C1CCCCC1
> 20 µM (inactive)	COc1cc2nc(Nc3ccc4ncccc4c3)nc(Nc3ccc(NC(C)=O)cc3)c2cc1OC
> 17.3 µM (inactive)	NC(=O)c1ccc(-c2nc(NCc3cccc(C(F)(F)F)c3)c3ncn(Cc4ccc(C(F)(F)F)cc4)c3n2)cc1
> 19.9 µM (inactive)	CC(C)n1cnc2c(Nc3ccc4c(c3)OCO4)nc(Nc3cccc(N(C)C)c3)nc21
> 19 µM (inactive)	COc1cc2nc(Nc3cccc(N(C)C)c3)nc(Nc3cc(OC)c(OC)c(OC)c3)c2cc1OC
inactive	COc1cc2nc(Nc3ccc(N4CCOCC4)cc3)nc(NCCOc3ccccc3)c2cc1OC
> 20 µM (inactive)	COc1cc2nc(Nc3ccc(-n4ccnc4)cc3)nc(Nc3ccc4c(c3)OCO4)c2cc1OC
inactive	CN(C)c1cccc(Nc2nccc(Nc3ccc4c(c3)OCO4)n2)c1
> 16.9 µM (inactive)	Oc1ccc(CCNc2ncnc3nc(N4CCN(Cc5ccc6c(c5)OCO6)CC4)[nH]c23)cc1
inactive	COc1ccc(CCNc2nc(Nc3ccc(N4CCOCC4)cc3)nc3cc(OC)c(OC)cc23)cc1
inactive	c1ccc(OCCNc2nc(N3CCN(Cc4ccc5c(c4)OCO5)CC3)nc3c2ncn3C2CCCCC2)cc1
inactive	Cc1cc(Nc2ccc(N3CCOCC3)cc2)nc(Nc2ccccc2)n1
> 20 µM (inactive)	COc1ccc(CCNC(=O)c2ccnc(Nc3cccc(N(C)C)c3)c2)cc1
inactive	Cc1cnc(-c2cccc(N)c2)nc1Nc1ccc(N2CCOCC2)cc1

IC50	SMILES
> 21.3 µM (inactive)	Oc1ccc(CCNc2nc(N3CCN(c4ccccn4)CC3)nc3c2ncn3-c2ccsc2)cc1
> 19.2 µM (inactive)	Cc1nc(C)n(-c2ccc(Nc3nccc(-c4cccc(-n5nccn5)c4)n3)cc2)n1
> 20 µM (inactive)	CC(C)n1c(-c2ccc(C(N)=O)cc2)nc2c(Nc3ccc(Oc4ccccc4)cc3)ncnc21
5.32 µM	Cc1cc(Nc2ccc3c(c2)OCO3)nc(Nc2cccc(N(C)C)c2)n1
> 19.2 µM (inactive)	O=c1[nH]cccc1-c1ccc(Nc2nccc(-c3ccc4nc(C5CC5)[nH]c(=O)c4c3)n2)cc1
> 20.1 µM (inactive)	COc1cc(Nc2nc(N3CCc4ccccc4C3)nc3c2ncn3C(C)C)cc(OC)c1OC
> 19.9 µM (inactive)	c1cc(-n2cnc3c(Nc4ccc(N5CCOCC5)cc4)nc(NCc4ccc5c(c4)OCO5)nc32)cs1
> 18.2 µM (inactive)	Nc1cccc(-c2nc3ncnc(Nc4ccc(N5CCOCC5)cc4)c3[nH]2)c1
> 19.2 µM (inactive)	NC(=O)c1cc2ccccc2cc1Nc1ccnc(Nc2ccc(N3CCOCC3)cc2)c1
> 19.2 µM (inactive)	CC(C)CNC(=O)c1ccc2c(c1)CC(c1nc3ncc(-c4ccnc(N)n4)cc3[nH]1)CO2 (centres undefined)
> 19.2 µM (inactive)	Cc1ccc(-c2ncn(-c3ccc(Nc4nccc(-c5cncc6ccccc56)n4)cc3)n2)cn1
> 21.9 µM (inactive)	c1cn(-c2ccc(Nc3nc4ncnc(Nc5ccc6c(c5)OCO6)c4[nH]3)cc2)cn1
> 19.2 µM (inactive)	CN1CCN(c2nc(C3COc4ccccc4O3)nc3ccc(-c4cn[nH]c4)cc23)CC1 (centres undefined)
> 15.9 µM (inactive)	c1ccc(-n2cnc3c(Nc4ccc(N5CCOCC5)cc4)nc(Nc4cccnc4)nc32)cc1
> 19.2 µM (inactive)	c1ccc(Nc2cc(-c3ccnc(Nc4ccc(N5CCOCC5)cc4)c3)nn2-c2ccccc2)cc1
> 19.2 µM (inactive)	Cc1ccc(-c2ncn(-c3ccc(Nc4nccc(-c5cncc(N6CCOCC6)c5)n4)cc3)n2)cn1
> 13.8 µM (inactive)	c1nc(Nc2ccc(N3CCOCC3)cc2)c2[nH]c(N3CCN(Cc4ccc5c(c4)OCO5)CC3)nc2n1
6.67 µM	COc1ccc(CCNc2cc(C)nc(Nc3cccc(N(C)C)c3)n2)cc1
6.99 µM	Cc1cc(NCCOc2ccccc2)nc(Nc2cccc(N(C)C)c2)n1
> 18.9 µM (inactive)	COc1cc2nc(Nc3cccc(N(C)C)c3)nc(NCc3cccc(C(F)(F)F)c3)c2cc1OC
inactive	FC(F)(F)c1cccc(CNc2ccnc(Nc3ccc(N4CCOCC4)cc3)n2)c1

IC50	SMILES
inactive	COc1cc2nc(Nc3ccc(N4CCOCC4)cc3)nc(NC3CC3)c2cc1OC
inactive	c1cc(-n2cnc3c(Nc4ccc(N5CCOCC5)cc4)nc(N4CCN(Cc5ccc6c(c5)OCO6)CC4)nc32)cs1
> 19.2 µM (inactive)	Fc1cnc(Nc2ccc(N3CCNCC3)cc2)cc1-n1cnc(Nc2ccccc2)n1
7.91 µM	c1ccc(CN2CCC(Nc3nc(Nc4ccc(N5CCOCC5)cc4)nc4c3ncn4C3CCCCC3)CC2)cc1
> 19.2 µM (inactive)	Cn1cc(-c2ccc3cnc(Nc4ccc(-c5ccc(N6CCOCC6)nc5)cc4)nc3c2Cl)cn1
> 20 µM (inactive)	COc1cc2nc(Nc3ccc(N4CCOCC4)cc3)nc(NCc3ccccc3)c2cc1OC
> 19.2 µM (inactive)	Cc1nc(C)n(-c2ccc(Nc3nccc(-c4cccc(-n5cncn5)c4)n3)cc2)n1
> 19.2 µM (inactive)	Cc1ccc(-c2cccc3cnc(Nc4ccc(-n5cnc(C)n5)cc4)nc23)cn1
> 19.2 µM (inactive)	COc1ccc2c(c1)CC(C(=O)Nc1ccc(-c3cn[nH]c3)cc1OCCN(Cc1ccccc1)Cc1ccccc1)CO2 (centres undefined)
> 19.2 µM (inactive)	c1ccc(CCn2nc(-c3ccnc(Nc4ccc(N5CCOCC5)cc4)c3)cc2Nc2ccccc2)cc1
inactive	CCN(CC)c1nc(Nc2ccc3c(c2)OCO3)nc(N2CCC(N3CCOCC3)CC2)n1
inactive	c1cnc2ccc(Nc3nc(Nc4ccc(N5CCOCC5)cc4)c4[nH]cnc4n3)cc2c1
> 19.2 µM (inactive)	CC(=O)c1cccc(-c2nc(NCc3ccccc3)c3ncn(Cc4ccc(C(F)(F)F)cc4)c3n2)c1
inactive	c1cc(Nc2ccc3c(c2)OCO3)nc(Nc2ccc(N3CCOCC3)cc2)n1
6.57 µM	Cc1cc(NCc2cccc(C(F)(F)F)c2)nc(Nc2ccc(N3CCOCC3)cc2)n1
inactive	COc1cc(Nc2nc(Nc3ccc(N4CCOCC4)cc3)c3ncn(Cc4ccc(C(F)(F)F)cc4)c3n2)cc(OC)c1OC
> 18 µM (inactive)	NC(=O)c1ccc(-c2nc(NCc3cccc(C(F)(F)F)c3)c3ncn(-c4ccccc4)c3n2)cc1
> 19.2 µM (inactive)	Cc1[nH]ncc1-c1ccc2nc(NC(=O)C3COc4ccc(F)cc4C3)sc2c1 (centres undefined)
> 19.2 µM (inactive)	Cc1c[nH]c2ncnc(-c3ccc(NC(=O)Nc4ccccc4)cc3)c12
> 20 µM (inactive)	CC(C)n1cnc2c(Nc3ccc4c(c3)OCO4)nc(Nc3ccc(N4CCOCC4)cc3)nc21
> 20.1 µM (inactive)	c1cc(Nc2ccc3c(c2)OCO3)nc(N2CCN(Cc3ccc4c(c3)OCO4)CC2)n1
